Values quoted from earlier work in patent publication US20180271919A1, “PROBIOTIC COMPOSITION AT LEAST COMPRISING BIFIDOBACTERIUM BIFIDUM W23 AND CAPABLE OF CONTROLLING INTESTINAL BARRIER FUNCTION” (Winclove Holding B.V., priority 2015, published 2018).

Tested on: patients with schizophrenia
Settings: patients with schizophrenia prescribed the drug

Rate of metabolic syndrome: 52%
SMILES: CN1CCN(C2=Nc3cc(Cl)ccc3Nc3ccccc32)CC1 [clozapine]
